In patent US20130244896A1, “IN VITRO METHOD FOR PREDICTING WHETHER A COMPOUND IS GENOTOXIC IN VIVO” (priority 2012, published 2013):
Like-named read-outs stand apart in the source and are kept apart here.

Tests used:
HepG2 cells = assay: IC20-72 hours value used as exposure dose in HepG2 cells; type: cell-based, human
Procedure: All measurements were performed in triplicate.

[1] = test system: microRNA 1262, microRNA 98 and microRNA 30c-1
bacteria = conditions: cited from earlier work
[2] = GTX/NGTX class as in Tables 3-7; cited from earlier work
[3] = Homo sapiens, HepG2 cells, IC20-72 hours, read-out: Dose (IC20-72 hours value)
[4] = HepG2 cells exposed at Table 1 dose
[5] = number of the three microRNAs predicting correctly
[6] = correct predictions of three independent experiments
[7] = HepG2 cells, IC20-72 hours, read-out: Dose (IC20-72 hours value)

Row | Compound | IC20 (HepG2 cells; [3]) | Score / correctness of miRNA prediction, 1262 (number of correct predictions of three independent experiments) (hsa-miR-1262; [4]) | Score / correctness of miRNA prediction, 98 (number of correct predictions of three independent experiments) (hsa-miR-98; [4]) | Score / correctness of miRNA prediction, 30c-1 (number of correct predictions of three independent experiments) (hsa-miR-30c-1*; [4]) | Aggregate result, correct [1, 5] | correctness of microRNA prediction, 885-3p (hsa-miR-885-3p; [6]) | correctness of microRNA prediction, 888* (hsa-miR-888*; [6]) | correctness of microRNA prediction, 1229 (hsa-miR-1229; [6]) | correctness of microRNA prediction, 891b (hsa-miR-891b; [6]) | correctness of microRNA prediction, 302b (hsa-miR-302b; [6]) | correctness of microRNA prediction, 1246 (hsa-miR-1246; [6]) | correctness of microRNA prediction, 502-3p (hsa-miR-502-3p; [6]) | GTX in vivo [2] | IC20 (HepG2 cells; [7]) | further results
1 | Clc1cc2c(cc1Cl)Oc1cc(Cl)c(Cl)cc1O2 [2,3,7,8-tetrachloro dibenzo-p-dioxin] | 0.01 µM | (3/3) | (3/3) | (2/3) | 3/3 | (3/3) | (1/3) | (2/3) | (2/3) | (2/3) | (3/3) | (2/3) | NGTX |  | Ames test result (bacteria): −
2 | Oc1cccc2cccnc12 [8-quinolinol] |  |  |  |  |  |  |  |  |  |  |  |  |  |  | IC20 (HepG2 cells; Homo sapiens, HepG2, read-out: Dose (IC20-72 hours value)): 15 µM; Prediction, miRNA 98 (hsa-miR-98): NGTX (key: GTX: hsa-miR-98: Prediction if Expression is above Reference value; NGTX: hsa-miR-98: Prediction if Expression is below Reference value); Score / correctness of miRNA prediction, 98 (number of correct predictions of three independent experiments) (hsa-miR-98; human): (3/3); Prediction, miRNA 30c-1 (hsa-miR-30c-1*): GTX (key: GTX: hsa-miR-30c-1*: Prediction if Expression is above Reference value; NGTX: hsa-miR-30c-1*: Prediction if Expression is below Reference value); Score / correctness of miRNA prediction, 30c-1 (number of correct predictions of three independent experiments) (hsa-miR-30c-1*; human): (1/3); Aggregate result, result [1]: NGTX; Aggregate result, correct ([1]; human): 2/3; correctness of microRNA prediction, 885-3p (hsa-miR-885-3p; human): (1/3); correctness of microRNA prediction, 888* (hsa-miR-888*; human): (3/3); correctness of microRNA prediction, 1229 (hsa-miR-1229; human): (3/3); correctness of microRNA prediction, 891b (hsa-miR-891b; human): (3/3); correctness of microRNA prediction, 302b (hsa-miR-302b; human): (1/3); correctness of microRNA prediction, 1246 (hsa-miR-1246; human): (0/3); correctness of microRNA prediction, 502-3p (hsa-miR-502-3p; human): (2/3); Ames test result (bacteria): +
3 | C[C@]12CC[C@@H]3c4ccc(O)cc4CC[C@H]3[C@@H]1CC[C@@H]2O [17beta-estradiol, 17 beta-estradiol] |  |  |  |  | 3/3 |  |  |  |  |  |  |  | NGTX | 30 µM | 
4 | CC1(C)S[C@@H]2[C@H](NC(=O)[C@H](N)c3ccccc3)C(=O)N2[C@H]1C(=O)O [Ampicillin trihydrate] | 250 µM | (2/3) | (3/3) | (3/3) | 3/3 | (3/3) | (3/3) | (3/3) | (2/3) | (2/3) | (1/3) | (3/3) |  |  | 
5 | c1ccc2c(c1)cc1ccc3cccc4ccc2c1c34 [Benzo[a]pyere] |  | (2/3) | (2/3) | (2/3) | 3/3 | (2/3) | (2/3) | (3/3) | (3/3) | (2/3) | (3/3) | (2/3) |  | 2 µM | 
6 | N.N.[Cl][Pt][Cl] [Cisplatin] |  |  |  |  | 3/3 |  |  |  |  |  |  |  | GTX | 7 µM | 
7 | O=c1c(O)c(-c2ccc(O)c(O)c2)oc2cc(O)cc(O)c12 [Quercetin] | 50 µM | (3/3) | (1/3) | (3/3) | 2/3 | (1/3) | (1/3) | (1/3) | (2/3) | (1/3) | (2/3) | (1/3) | NGTX |  | 
8 | Aflatoxin B1 |  |  |  |  |  |  |  |  |  |  |  |  |  |  | IC20 (HepG2 cells; read-out: Dose (IC20-72 hours value)): 1 µM; Score / correctness of miRNA prediction, 1262 (number of correct predictions of three independent experiments) (hsa-miR-1262): (2/3); Score / correctness of miRNA prediction, 98 (number of correct predictions of three independent experiments) (hsa-miR-98): (2/3); Score / correctness of miRNA prediction, 30c-1 (number of correct predictions of three independent experiments) (hsa-miR-30c-1*): (2/3); Aggregate result, correct [1]: 3/3; correctness of microRNA prediction, 885-3p (hsa-miR-885-3p): (1/3); correctness of microRNA prediction, 888* (hsa-miR-888*): (3/3); correctness of microRNA prediction, 1229 (hsa-miR-1229): (1/3); correctness of microRNA prediction, 891b (hsa-miR-891b): (2/3); correctness of microRNA prediction, 302b (hsa-miR-302b): (2/3); correctness of microRNA prediction, 1246 (hsa-miR-1246): (1/3); correctness of microRNA prediction, 502-3p (hsa-miR-502-3p): (2/3)
